From BindingDB's records for doi:10.7270/Q2FT8P6X (n/a, 1994)
pKi: −log10 of the molar value.

Target: Leukotriene B4 receptor (Cavia porcellus)
Assay: Negative logarithm of affinity for leukotriene B4 (LTB4) receptor on guinea pig lung membranes

pKi | Structure (SMILES)
7.20 | CCc1cc(-c2ccc(N(C)C)cc2)c(O)cc1OCCCCCC(C)(C)c1nn[nH]n1
7.18 | CCc1cc(-c2cccc(C(F)(F)F)c2)c(O)cc1OCCCCCC(C)(C)c1nn[nH]n1
